Our source for the IC50 values is patent US10934311B2, “Heterocyclic compound used as FGFR inhibitor” (Hangzhou Innogate Pharma Co., Ltd., priority 2016, dated 2021).

In assay [1] the target is FGFR1 (Homo sapiens, UniProt P11362). The experiment in a line: FGFR1 kinase activity inhibition (Caliper mobility shift assay). The assay is classed as biochemical. The settings on record: read-out: FGFR kinase activity inhibition (IC50, nM) FGFR1. The protocol:
(§1) 1. FGFR1, FGFR2, FGFR3, and FGFR4 Kinase Activity Inhibition Experiments The FGFR1, FGFR2, FGFR3, and FGFR4 protein kinase activities were measured using the Caliper mobility shift assay. Compounds were solubilized in DMSO and diluted in kinase buffer. 5 µL of compound at 5 times final concentration (10% DMSO) was added to a 384-well plate. 10 μL of a 2.5-fold enzyme (FGFR1, FGFR2, FGFR3, and FGFR4, respectively) solution was added and incubated at room temperature for 10 minutes, followed by the addition of […] of a 2.5-fold substrate (FAM-labeled peptide and ATP) solution. The reaction was incubated for 30-60 minutes at 28° C., then stopped by adding 25 μL of stop solution (pH 7.5 100 mM HEPES, 0.015% Brij-35, 0.2% Coating Reagent #3, 50 mM EDTA). Conversion data was read on the Caliper EZ Reader II (Caliper Life Sciences). The conversion rate was converted into inhibition rate (% inhibition rate=(max−sample conversion rate)/(max−min)*100). Where max refers to the conversion of the DMSO control and min refers to the conversion of the non-enzymatic live control. With the compound concentration and inhibition rate plotted on the abscissa and the vertical axis, the curve was fitted using XLFit excel add-in version 4.3.1 software and the IC50 was calculated.

Assay [2] concerns the target FGFR3 (Homo sapiens, UniProt P22607). Kind of assay: FGFR3 kinase activity inhibition (Caliper mobility shift assay). It is filed as biochemical. Particulars: read-out: FGFR kinase activity inhibition (IC50, nM) FGFR3. As to the method: as §1
Assay [3] deals with FGFR4 (Homo sapiens, UniProt P22455). Kind of assay: FGFR4 kinase activity inhibition (Caliper mobility shift assay). It is filed as biochemical. The settings on record: read-out: FGFR kinase activity inhibition (IC50, nM) FGFR4. As to the method:
as §1

The target of assay [4] is FGFR2 (Homo sapiens, UniProt P21802). The experiment in a line: FGFR2 kinase activity inhibition (Caliper mobility shift assay). The assay is classed as biochemical. The settings on record: read-out: FGFR kinase activity inhibition (IC50, nM) FGFR2. As to the method: as §1
Sequence of FGFR2 (P21802 22-821): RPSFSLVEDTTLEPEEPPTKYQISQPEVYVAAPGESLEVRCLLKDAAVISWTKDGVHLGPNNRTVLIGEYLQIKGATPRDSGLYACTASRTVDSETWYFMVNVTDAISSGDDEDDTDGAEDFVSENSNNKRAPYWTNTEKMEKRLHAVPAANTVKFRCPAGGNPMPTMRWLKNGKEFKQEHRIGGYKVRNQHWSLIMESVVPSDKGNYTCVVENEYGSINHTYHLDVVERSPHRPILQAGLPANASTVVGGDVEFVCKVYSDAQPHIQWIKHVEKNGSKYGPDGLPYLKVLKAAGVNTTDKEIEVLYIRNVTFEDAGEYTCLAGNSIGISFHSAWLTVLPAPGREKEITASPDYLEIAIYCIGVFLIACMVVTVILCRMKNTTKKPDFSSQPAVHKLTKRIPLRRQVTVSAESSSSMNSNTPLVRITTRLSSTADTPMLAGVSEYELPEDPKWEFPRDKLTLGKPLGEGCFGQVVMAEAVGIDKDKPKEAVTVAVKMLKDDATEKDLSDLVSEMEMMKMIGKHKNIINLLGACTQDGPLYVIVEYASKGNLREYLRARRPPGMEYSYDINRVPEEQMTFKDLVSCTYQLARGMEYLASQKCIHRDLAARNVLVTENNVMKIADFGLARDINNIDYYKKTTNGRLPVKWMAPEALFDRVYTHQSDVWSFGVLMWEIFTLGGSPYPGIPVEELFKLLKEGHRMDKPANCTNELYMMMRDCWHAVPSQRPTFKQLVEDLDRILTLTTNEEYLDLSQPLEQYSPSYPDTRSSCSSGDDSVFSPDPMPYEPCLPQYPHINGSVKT
Assay [5] has as its system SNU-16 tumor cells. The experiment in a line: Inhibition test against SNU-16 tumor cell proliferation (CTG). The settings on record: Homo sapiens, 72 hours drug treatment, CTG readout, read-out: Inhibits of SNU-16 tumor cells proliferation (IC50, nM) SNU-16. The assay is classed as cell-based. The protocol:
2. Compounds' Inhibition Test Against SNU-16 Tumor Cell Proliferation
SNU-16 cell suspension was adjusted to 5.56×10e4/mL with RPMI 1640 medium. Add 90 μL of cell suspension to 96-well cell culture plates per well for a final cell concentration of 5000 cells/well. The test compound was dissolved in DMSO as a 10 mM stock solution. The 3× series of serial dilutions were prepared with stock and DMSO and then diluted 100-fold with media. Finally, 10 μL of the corresponding 10× solution was added to each well of each cell, and each drug concentration was 2 replicates. The final concentration of each compound was 1000 nM, 333.3 nM, 111.1 nM, 37.04 nM, 12.35 nM, 4.115 nM, 1.372 nM, 0.457 nM, 0.152 nM, the final concentration of DMSO per well is 0.1%. Place in a 37° C., 5% CO2 incubator for 72 hours. After 72 hours of drug treatment, add 50 μL (1/2 culture volume) of CTG solution that has been previously thawed and equilibrated to room temperature per well according to CTG instructions, mix for 2 minutes using a microplate shaker, and allow to stand at room temperature for 10 minutes. The Envision 2104 reader was used to determine the […] signal value. Cell viability formula: Vsample/Vvehicle control×100% for calculation. Wherein Vsample is the reading of the drug treatment group and, Vvehicle control is the average of the solvent control group. Using the GraphPad Prism 5.0 software, a sigmoidal dose-survival curve was plotted using a non-linear regression model and IC50 values were calculated.

Bounds are passed on as bounds.

Sequence of FGFR1 (P11362 22-822): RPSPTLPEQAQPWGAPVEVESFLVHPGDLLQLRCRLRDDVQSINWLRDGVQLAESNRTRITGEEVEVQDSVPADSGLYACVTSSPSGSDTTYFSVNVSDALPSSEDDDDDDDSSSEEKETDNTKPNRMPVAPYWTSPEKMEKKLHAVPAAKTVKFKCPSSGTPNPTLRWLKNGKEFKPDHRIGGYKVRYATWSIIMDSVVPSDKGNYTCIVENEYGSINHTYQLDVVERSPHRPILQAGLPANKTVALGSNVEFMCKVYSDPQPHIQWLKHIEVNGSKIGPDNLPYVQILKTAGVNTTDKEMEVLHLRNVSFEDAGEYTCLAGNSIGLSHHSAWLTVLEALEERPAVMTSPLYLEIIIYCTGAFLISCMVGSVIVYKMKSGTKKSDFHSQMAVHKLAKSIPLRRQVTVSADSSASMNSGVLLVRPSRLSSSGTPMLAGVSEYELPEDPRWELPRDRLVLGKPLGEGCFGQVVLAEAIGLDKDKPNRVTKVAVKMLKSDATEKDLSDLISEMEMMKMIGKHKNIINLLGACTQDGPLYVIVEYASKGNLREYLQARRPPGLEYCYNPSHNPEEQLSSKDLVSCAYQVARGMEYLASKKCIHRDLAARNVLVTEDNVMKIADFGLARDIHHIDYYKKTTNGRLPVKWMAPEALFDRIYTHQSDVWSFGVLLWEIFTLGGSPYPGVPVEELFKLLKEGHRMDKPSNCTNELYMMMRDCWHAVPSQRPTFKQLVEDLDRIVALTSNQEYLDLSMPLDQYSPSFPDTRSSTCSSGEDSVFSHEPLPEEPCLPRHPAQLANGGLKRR
Sequence of FGFR4 (P22455 22-802): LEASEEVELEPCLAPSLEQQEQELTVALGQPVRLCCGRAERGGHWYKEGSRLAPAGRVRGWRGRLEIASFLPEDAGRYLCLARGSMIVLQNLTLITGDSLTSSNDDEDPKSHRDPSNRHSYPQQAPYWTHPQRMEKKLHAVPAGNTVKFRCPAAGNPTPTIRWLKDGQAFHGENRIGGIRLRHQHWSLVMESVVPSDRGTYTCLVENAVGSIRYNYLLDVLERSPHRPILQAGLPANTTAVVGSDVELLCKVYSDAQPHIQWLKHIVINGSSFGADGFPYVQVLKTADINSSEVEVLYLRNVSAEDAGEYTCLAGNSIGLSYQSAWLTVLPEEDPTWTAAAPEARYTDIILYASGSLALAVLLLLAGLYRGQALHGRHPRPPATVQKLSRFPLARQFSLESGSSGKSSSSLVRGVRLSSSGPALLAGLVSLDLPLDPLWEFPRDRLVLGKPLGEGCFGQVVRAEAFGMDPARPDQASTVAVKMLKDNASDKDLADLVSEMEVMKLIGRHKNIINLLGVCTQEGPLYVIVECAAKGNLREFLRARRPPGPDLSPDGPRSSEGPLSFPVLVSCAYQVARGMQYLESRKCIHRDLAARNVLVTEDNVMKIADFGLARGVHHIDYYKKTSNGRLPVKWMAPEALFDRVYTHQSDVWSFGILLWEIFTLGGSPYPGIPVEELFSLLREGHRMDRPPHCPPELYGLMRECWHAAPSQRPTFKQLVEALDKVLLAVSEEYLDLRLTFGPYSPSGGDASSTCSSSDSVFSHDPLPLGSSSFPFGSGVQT
Sequence of FGFR3 (P22607 23-806): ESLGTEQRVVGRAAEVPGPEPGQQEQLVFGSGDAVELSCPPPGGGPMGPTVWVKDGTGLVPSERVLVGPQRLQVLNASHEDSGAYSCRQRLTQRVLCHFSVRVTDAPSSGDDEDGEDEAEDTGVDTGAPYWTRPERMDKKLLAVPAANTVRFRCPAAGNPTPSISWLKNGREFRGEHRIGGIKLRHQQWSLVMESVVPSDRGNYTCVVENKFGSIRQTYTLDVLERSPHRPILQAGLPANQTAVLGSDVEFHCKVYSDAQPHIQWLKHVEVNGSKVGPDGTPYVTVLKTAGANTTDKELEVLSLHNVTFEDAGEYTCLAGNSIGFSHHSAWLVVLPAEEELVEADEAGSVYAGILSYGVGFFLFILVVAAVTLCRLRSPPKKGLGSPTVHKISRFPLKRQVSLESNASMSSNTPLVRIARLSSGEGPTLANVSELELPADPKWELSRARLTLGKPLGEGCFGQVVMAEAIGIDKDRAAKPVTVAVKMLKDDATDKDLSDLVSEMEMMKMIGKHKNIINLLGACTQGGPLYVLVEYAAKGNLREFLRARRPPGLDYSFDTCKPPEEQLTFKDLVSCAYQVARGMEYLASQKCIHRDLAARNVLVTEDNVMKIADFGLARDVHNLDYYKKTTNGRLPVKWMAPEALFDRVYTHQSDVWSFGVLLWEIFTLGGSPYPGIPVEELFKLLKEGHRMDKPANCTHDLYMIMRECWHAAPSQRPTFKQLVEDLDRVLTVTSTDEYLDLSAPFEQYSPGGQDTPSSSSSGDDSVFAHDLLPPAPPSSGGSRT

Regarding `COc1cc(OC)c(Cl)c(NC(=O)N(C)c2cc(Nc3ccc4c(c3)OCCN(C)CCO4)ncn2)c1Cl` [Compound 1], the IC50 in assay [1] and in assay [2] was less than 20 nM each time.

For `COc1cc(OC)c(Cl)c(NC(=O)N(C)c2cc(Nc3ccc4c(c3)OC[C@H]3CN(C)CCN43)ncn2)c1Cl` [Compound 2R], the IC50 in assay [3] is less than 200 nM; in assay [4], less than 10 nM; in assay [5] it was less than 10 nM; in assay [1] it was less than 10 nM; in assay [2], less than 10 nM.

With `COc1cc(OC)c(Cl)c(NC(=O)N(C)c2cc(Nc3ccc4c(c3)OC[C@@H]3CN(C)CCN43)ncn2)c1Cl` [Compound 2S], the IC50 in assay [3] was less than 200 nM; in assay [4], less than 10 nM; in assay [5] it was less than 10 nM; in assay [1], less than 10 nM; in assay [2], less than 10 nM.

For `COc1cc(OC)c(Cl)c(NC(=O)N(C)c2cc(Nc3ccc4c(c3)OCC3CN(C)CCN43)ncn2)c1Cl` (stereo not shown) [Compound 2], the IC50 in assay [1] and in assay [2] was less than 10 nM in each case.

As to `COc1cc(OC)c(Cl)c(NC(=O)N(C)c2cc(Nc3ccc(N4CC5CN(C)CC(C4)C5(F)F)cc3)ncn2)c1Cl` [Compound 3], the IC50 in assay [5], in assay [1] and in assay [2] was less than 10 nM throughout.

For the compound `CCN1CCN2c3ccc(Nc4cc(N(C)C(=O)Nc5c(Cl)c(OC)cc(OC)c5Cl)ncn4)cc3OC[C@H]2C1` [Compound 4R], the IC50 in assay [4] and in assay [1] was less than 10 nM throughout.

On to `CCN1CCN2c3ccc(Nc4cc(N(C)C(=O)Nc5c(Cl)c(OC)cc(OC)c5Cl)ncn4)cc3OC[C@@H]2C1` [Compound 4S], for which the IC50 in assay [3] was less than 200 nM; in assay [4], less than 10 nM; in assay [5], less than 10 nM; in assay [1] it was less than 10 nM; in assay [2], less than 10 nM.

Turning to `C=CC(=O)Nc1cc2c(cc1Nc1cc(N(C)C(=O)Nc3c(Cl)c(OC)cc(OC)c3Cl)ncn1)OC[C@@H]1CN(C)CCN21` [Compound 5S], the IC50 in assay [3] is less than 20 nM; in assay [4] it was greater than 1000 nM; in assay [1], greater than 1000 nM; in assay [2], greater than 1000 nM.

As for `COc1cc(OC)c(Cl)c(NC(=O)N(C)c2cc(Nc3ccc4c(c3)OC[C@H]3CN(C5CC5)CCN43)ncn2)c1Cl` [Compound 6R], the IC50 in assay [4] was less than 50 nM; in assay [1] it was less than 20 nM.

For the compound `COc1cc(OC)c(Cl)c(NC(=O)N(C)c2cc(Nc3ccc4c(c3)OC[C@H]3CN(C(C)=O)CCN43)ncn2)c1Cl` [Compound 7R], the IC50 in assay [4] and in assay [1] was less than 10 nM in each case.

For the compound `COc1cc(OC)c(Cl)c(NC(=O)N(C)c2cc(Nc3ccc4c(c3)OC[C@H]3COCCN43)ncn2)c1Cl` [Compound 8R], the IC50 in assay [4] and in assay [1] was less than 20 nM in each case.

Regarding `COc1cc(OC)c(Cl)c(NC(=O)N(C)c2cc(Nc3ccc4c(c3)OC[C@H]3CN(C)CC(=O)N43)ncn2)c1Cl` [Compound 9R], the IC50 in assay [4] and in assay [1] was less than 10 nM each time.

`CCS(=O)(=O)N1CCN2c3ccc(Nc4cc(N(C)C(=O)Nc5c(Cl)c(OC)cc(OC)c5Cl)ncn4)cc3OC[C@H]2C1` [Compound 10R]: the IC50 in assay [4] and in assay [1] was less than 50 nM throughout.

In the case of `C=CC(=O)Nc1ccc(CN(C(=O)Nc2c(Cl)c(OC)cc(OC)c2Cl)c2cc(Nc3ccc4c(c3)OC[C@@H]3CN(C)CCN43)ncn2)cc1` [Compound 11S], the IC50 in assay [3] is less than 200 nM; in assay [1], less than 50 nM.
